Measurements published in patent US4694069A, “Kibdelosporangium aridum SK&F-AAD-609” (SmithKline Beckman Corporation, priority 1985, dated 1987).
≈ marks a conversion by molar mass, not a printed value. Where two headings read alike, the source gives them in different places.

Legend:
S. faecalis 34358 = test: In vitro MIC, standard microtiter assay; type: cell-based, Streptococcus faecalis
Text: (§1) In vitro minimum inhibitory concentrations (MIC) of the AAD-609 complex and of Factors A, B, CC2 and D, using standard microtiter assay procedures, against a number of microorganisms are reported in Table A, which follows.

Clostridium difficile = test: In vitro MIC, standard microtiter assay; type: cell-based; settings: Clostridioides difficile; Table A; read-out: MIC
Text: as §1

S. epidermidis 2683 = test: In vitro MIC, standard microtiter assay; type: cell-based; settings: Staphylococcus epidermidis, 2683; Table A; read-out: MIC
Text: as §1

S. epidermidis 2479 = test: In vitro MIC, standard microtiter assay; type: cell-based
Text: as §1

[1] = test system: Salmonella gallinarum BC-595; test: In vitro MIC, standard microtiter assay; type: cell-based; settings: Salmonella enterica, GALLINARUM; Table A; read-out: MIC
Text: as §1

[2] = test system: Streptococcus faecalis 657; test: In vitro MIC, standard microtiter assay; type: cell-based; settings: Enterococcus faecalis, 657; Table A; read-out: MIC
Text: as §1

Escherichia coli 12140 = test: In vitro MIC, standard microtiter assay; type: cell-based; settings: Escherichia coli, 12140; Table A; read-out: MIC
Text: as §1

[3] = test system: Staphylococcus aureus HH127; test: In vitro MIC, standard microtiter assay; type: cell-based
Text: as §1

S. epidermidis 2265 = test: In vitro MIC, standard microtiter assay; type: cell-based; settings: Staphylococcus epidermidis, 2265; Table A; read-out: MIC
Text: as §1

[4] = test system: S. epidermidis 651 (methicillin resistant strain); test: In vitro MIC, standard microtiter assay; type: cell-based; settings: methicillin resistant strain
Text: as §1

[5] = test system: S. aureus 910 (methicillin resistant strain); test: In vitro MIC, standard microtiter assay; type: cell-based, Staphylococcus aureus; settings: Staphylococcus aureus; Table A; methicillin resistant strain; read-out: MIC
Text: as §1

S. aureus 209P = test: In vitro MIC, standard microtiter assay; type: cell-based, Staphylococcus aureus; settings: Staphylococcus aureus, 209P; Table A; read-out: MIC
Text: as §1

S. aureus 674 = test: In vitro MIC, standard microtiter assay; type: cell-based, Staphylococcus aureus; settings: Staphylococcus aureus, 674; Table A; read-out: MIC
Text: as §1

S. aureus 675 = test: In vitro MIC, standard microtiter assay; type: cell-based, Staphylococcus aureus; settings: Staphylococcus aureus, 675; Table A; read-out: MIC
Text: as §1

[6] = 30:70 acetonitrile:water
[7] = test system: S. aureus 2620 (methicillin resistant strain); test: MIC; type: cell-based; settings: Staphylococcus aureus; Table B; methicillin resistant strain; read-out: MIC
Text: as §1

SK&F-AAD-609 = test: Susceptibility of SK&F-AAD-609 to antibiotics (diffusion method, BBL susceptibility disks); type: cell-based, Kibdelosporangium aridum subsp. largum; settings: 28° C., one week
Protocol: Susceptibility of SK&F-AAD-609 to antibiotics was examined by placing BBL susceptibility disks on nutrient agar plates seeded with SK&F-ADD-609 as an agar overlay. Plates were placed at 4° C. for one hour to permit diffusion of the anitbiotics and, subsequently, incubated at 28° C. Diameters of the zones of inhibition were measured after incubation for one week.
Susceptibility to Antibiotics. […] Chlortetracycline (5 μg) produced 17-18 mm zones of inhibition; tetracycline (5 μg) 9-12 mm zones; rifampin (5 μg) 10-12 mm zones; novobiocin (5 μg) 30-35 mm zones. All zones of inhibition contained at least a few resistant colonies.

[8] = test system: mixed intestinal microflora (cecum fluid); test: Swine in vitro model; settings: one level, up to 166.67 ppm; 4-5 h
Protocol: A swine in vitro model was used to characterize AAD-609 antibiotics as potential feed additives in swine and poultry. Mixed intestinal microflora were obtained from ileally-cannulated pigs. Virginiamycin, carbadox, AAD-216 and its components, and AAD-609 Complex (containing less than 5% AAD-216 antibiotics) were tested at one level. […] Glucose (GLU) was spared from microbial degradation. Volatile fatty acids (TOTAL) were the major end-product of microbial metabolism while lactic acid production were reduced. […] Since AAD-609 and AAD-216 give similar in vitro results, it is expected that AAD-609 has similar growth-promoting activity in monogastric animals. Also, the in vitro activity of AAD-609 is similar to the activity previously observed with bacitracin in this model.
The swine in vitro model was carried out by incubating 1.5 ml of cecum fluid, from a swine fed normal rations, mixed with 1.5 ml of a nutrient broth (3 mg casein hydrolysate, 30 mg maltose, 1.25 mg urea, 0.5 mg lysine, and 30 mg cellobiose) and with up to 166.67 parts per million of a selected growth promotant at 39° C., with oscillation, for about 4-5 hours. Results, percentage of control, are reported in the following table in which all abbreviations are as above except that LLA means L-lactate and ETOH means ethanol.

[9] = test system: Hubbard cross day-old chicks; test: Growth of chicks; type: in vivo; settings: 8 reps
Protocol: The effects of virginiamycin, AAD-609 Complex (containing less than 5% AAD-216 antibiotics) and AAD-216 Complex on growth of chicks were evaluated as follows. Hubbard cross day-old chicks were housed in wire-floored poultry caging. Eight chicks were included in each pen/rep. Weights and feed intakes were recorded on days 10 and 17. Results showing animal weight as a percentage of a control fed a normal rye-based ration and animal feed intake per unit weight gain as a percentage of animal feed intake (g) per unit weight gain (g) of the controls are reported in the following table.

For CNC1C(=O)NC2C(=O)NC(C(=O)NC3C(=O)NC4C(=O)NC(C(=O)NC(C(=O)O)c5cc(O)cc(OC6OC(CO)C(O)C(O)C6O)c5-c5cc4ccc5O)C(O)c4cc(Cl)c(c(Cl)c4)Oc4cc3cc(c4OC3OC(CO)C(O)C(O)C3NC(=O)CCCCCCCC(C)C)Oc3ccc(cc3Cl)C2O)c2cc(cc(O)c2Cl)Oc2cc1ccc2O (stereo not drawn) [AAD-609 B], which MIC (S. faecalis 34358; Enterococcus faecalis, 34358, Table A, read-out: MIC) is on record?
Its MIC is 0.2 µg/mL (≈ 0.112 µM).

What about the MIC (S. faecalis 34358; Table B) of the same compound?
Its MIC is 0.2 µg/mL (≈ 0.112 µM).

And the MIC (Clostridium difficile)?
Its MIC is 0.5 µg/mL (≈ 0.279 µM).

And the MIC (S. epidermidis 2683)?
Its MIC is 25 µg/mL (≈ 14 µM).

What about the MIC (S. epidermidis 2479; Staphylococcus epidermidis, 2479, Table A, read-out: MIC) of the same compound?
Its MIC is 12.5 µg/mL (≈ 6.99 µM).

And the MIC (S. epidermidis 2479; Table B)?
The MIC was 12.5 µg/mL (≈ 6.99 µM).

And the MIC [1]?
The MIC was > 100 µg/mL.

And the MIC [2]?
The MIC was 0.2 µg/mL (≈ 0.112 µM).

What about the MIC (Escherichia coli 12140) of the same compound?
Its MIC is > 100 µg/mL.

And the MIC ([3]; Staphylococcus aureus, HH127, Table A, read-out: MIC)?
Its MIC is 1.6 µg/mL (≈ 0.894 µM).

What about the MIC ([3]; Table B) of the same compound?
Its MIC is 1.6 µg/mL (≈ 0.894 µM).

And the MIC (S. epidermidis 2265)?
Its MIC is 25 µg/mL (≈ 14 µM).

And the MIC ([4]; Staphylococcus epidermidis, Table A, read-out: MIC)?
The MIC was 50 µg/mL (≈ 27.9 µM).

What about the MIC ([4]; Table B) of the same compound?
Its MIC is 50 µg/mL (≈ 27.9 µM).

What about the MIC [5] of the same compound?
The MIC was 1.6 µg/mL (≈ 0.894 µM).

What about the MIC (S. aureus 209P) of the same compound?
Its MIC is 0.8 µg/mL (≈ 0.447 µM).

What about the MIC (S. aureus 674) of the same compound?
The MIC was 0.8 µg/mL (≈ 0.447 µM).

What about the MIC (S. aureus 675) of the same compound?
The MIC was 6.3 µg/mL (≈ 3.52 µM).

And the “pKa (A) carboxyl on aglycone” value [6]?
Its value is 3.5.

What about the “pKa (C) amino group on aglycone” value [6] of the same compound?
Its value is 7.1.

And the MIC [7]?
Its MIC is 2 µg/mL (≈ 1.12 µM).

Which “Zone of inhibition (diameter)” value (SK&F-AAD-609; disk 5 μg) does the source give for CN(C)[C@@H]1C(O)=C(C(N)=O)C(=O)[C@@]2(O)C(O)=C3C(=O)c4c(O)ccc(Cl)c4[C@@](C)(O)[C@H]3C[C@@H]12 [Chlortetracycline] here?
The value was 17-18 mm.

With gentamicin as the compound, how does the “Susceptibility (diffusion method)” value (SK&F-AAD-609; disk 10 μg) read?
The value was “resistant”.

For CC1(C)S[C@@H]2[C@H](NC(=O)[C@H](N)c3ccccc3)C(=O)N2[C@H]1C(=O)O [ampicillin], which “Susceptibility (diffusion method)” value (SK&F-AAD-609; disk 10 μg) is on record?
The value was “resistant”.

With CN(C)[C@@H]1C(=O)C(C(N)=O)=C(O)[C@@]2(O)C(=O)C3=C(O)c4c(O)cccc4[C@@](C)(O)[C@H]3C[C@@H]12 [tetracycline] as the compound, how does the “Zone of inhibition (diameter)” value (SK&F-AAD-609; disk 5 μg) read?
Its value is 9-12 mm.

For virginiamycin, which “% PR (percent propionate)” value [8] is on record?
The value was 69 % of control.

And the “ACE (acetate)” value [8]?
The value was 53 % of control.

What about the “BUT (butyrate)” value [8] of the same compound?
The value was 153 % of control.

What about the “ETOH (ethanol)” value [8] of the same compound?
The value was 25 % of control.

What about the “GLU (glucose)” value [8] of the same compound?
The value was 180 % of control.

And the “IBU (isobutyrate)” value [8]?
The value was 0 % of control.

And the “IVA (isovalerate)” value [8]?
The value was 0 % of control.

And the “LLA (L-lactate)” value [8]?
The value was 4 % of control.

What about the “LYS (lysine)” value [8] of the same compound?
Its value is 94 % of control.

What about the “PRO (propionate)” value [8] of the same compound?
The value was 44 % of control.

And the “TOTAL (total volatile fatty acids)” value [8]?
Its value is 63 % of control.

What about the VAL [8] of the same compound?
The VAL was 0 % of control.

And the “Feed/gain, days 3-10” value ([9]; 10.0 ppm in feed)?
The value was 99.8 % of control.

What about the “Feed/gain, days 3-17” value ([9]; 10.0 ppm in feed) of the same compound?
The value was 97.5 % of control.

And the “Feed/gain, days 10-17” value ([9]; 10.0 ppm in feed)?
Its value is 96.6 % of control.

What about the Mortality ([9]; 10.0 ppm in feed) of the same compound?
Its Mortality is 4.

And the “Weight, day 10” value ([9]; 10.0 ppm in feed)?
The value was 100.3 % of control.

What about the “Weight, day 17” value ([9]; 10.0 ppm in feed) of the same compound?
The value was 101.8 % of control.

And the “Feed/gain, days 3-10” value ([9]; 50.0 ppm in feed)?
The value was 92.8 % of control.

What about the “Feed/gain, days 3-17” value ([9]; 50.0 ppm in feed) of the same compound?
The value was 83.2 % of control.

And the “Feed/gain, days 10-17” value ([9]; 50.0 ppm in feed)?
The value was 74.3 % of control.

What about the Mortality ([9]; 50.0 ppm in feed) of the same compound?
The Mortality was 2.

What about the “Weight, day 10” value ([9]; 50.0 ppm in feed) of the same compound?
Its value is 101.5 % of control.

What about the “Weight, day 17” value ([9]; 50.0 ppm in feed) of the same compound?
Its value is 120.2 % of control.

Which “Susceptibility (diffusion method)” value (SK&F-AAD-609; disk 10 μg) does the source give for [H]/N=C(/N)N[C@H]1[C@H](O)[C@@H](O)[C@H](O[C@@H]2O[C@@H](C)[C@](O)(C=O)[C@H]2O[C@@H]2O[C@@H](CO)[C@H](O)[C@@H](O)[C@@H]2NC)[C@@H](N/C(N)=N\[H])[C@@H]1O [streptomycin] here?
Its value is “resistant”.

With CO[C@H]1/C=C/O[C@@]2(C)Oc3c(C)c(O)c4c(O)c(c(/C=N/N5CCN(C)CC5)c(O)c4c3C2=O)NC(=O)/C(C)=C\C=C\[C@H](C)[C@H](O)[C@@H](C)[C@@H](O)[C@@H](C)[C@H](OC(C)=O)[C@@H]1C [rifampin] as the compound, how does the “Zone of inhibition (diameter)” value (SK&F-AAD-609; disk 5 μg) read?
Its value is 10-12 mm.

For NC[C@H]1O[C@H](O[C@H]2[C@H](O)[C@@H](O[C@H]3O[C@H](CO)[C@@H](O)[C@H](N)[C@H]3O)[C@H](N)C[C@@H]2N)[C@H](N)C[C@@H]1O [tobramycin], which “Susceptibility (diffusion method)” value (SK&F-AAD-609; disk 10 μg) is on record?
The value was “resistant”.

For O=C(N[C@H](CO)[C@H](O)c1ccc([N+](=O)[O-])cc1)C(Cl)Cl [chloramphenicol], which “Susceptibility (diffusion method)” value (SK&F-AAD-609; disk 5 μg) is on record?
The value was “resistant”.

Which “Susceptibility (diffusion method)” value (SK&F-AAD-609; disk 2 μg) does the source give for CCC[C@@H]1C[C@@H](C(=O)N[C@@H]([C@H]2O[C@H](SC)[C@H](O)[C@@H](O)[C@H]2O)[C@@H](C)O)N(C)C1 [lincomycin] here?
Its value is “resistant”.

With CC1(C)S[C@@H]2[C@H](NC(=O)Cc3ccccc3)C(=O)N2[C@H]1C(=O)O [penicillin] as the compound, how does the “Susceptibility (diffusion method)” value (SK&F-AAD-609; disk 10 units) read?
Its value is “resistant”.

With CO[C@@H]1[C@@H](OC(N)=O)[C@@H](O)[C@H](Oc2ccc3c(O)c(NC(=O)c4ccc(O)c(CC=C(C)C)c4)c(=O)oc3c2C)OC1(C)C [novobiocin] as the compound, how does the “Zone of inhibition (diameter)” value (SK&F-AAD-609; disk 5 μg) read?
Its value is 30-35 mm.

With CC(=O)OCC1=C(C(=O)O)N2C(=O)[C@@H](NC(=O)Cc3cccs3)[C@H]2SC1 [cephalothin] as the compound, how does the “Susceptibility (diffusion method)” value (SK&F-AAD-609; disk 30 μg) read?
The value was “resistant”.
